{"source": "paper PMC5681660", "about": "“Reduced hepatitis B and D viral entry using clinically applied drugs as novel inhibitors of the bile acid transporter NTCP” (Scientific Reports, 2017)", "key": {"human NTCP [1]": {"target": "T1, human NTCP (Homo sapiens, UniProt Q14973)", "T1 sequence (Q14973 1-349)": "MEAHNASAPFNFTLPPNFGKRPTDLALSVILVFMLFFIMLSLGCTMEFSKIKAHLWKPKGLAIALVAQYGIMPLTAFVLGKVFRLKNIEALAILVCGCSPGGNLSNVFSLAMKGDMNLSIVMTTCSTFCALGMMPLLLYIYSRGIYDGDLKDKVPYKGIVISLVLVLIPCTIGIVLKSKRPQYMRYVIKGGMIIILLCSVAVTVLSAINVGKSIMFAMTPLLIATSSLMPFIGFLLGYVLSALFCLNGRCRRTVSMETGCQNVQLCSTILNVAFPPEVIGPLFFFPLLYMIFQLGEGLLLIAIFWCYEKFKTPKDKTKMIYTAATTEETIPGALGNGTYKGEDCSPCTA", "test": "Screening fluorescent competitive Myrcludex B-FITC binding assay (96-well, 10 µM drug)"}, "human NTCP [2]": {"target": "T1, human NTCP", "test": "Screening taurocholate uptake assay (96-well, [14C]taurocholate, 10 µM drug)"}, "[3]": {"conditions": "Prestwick library screen, 10 µM drug, B-score of Myrcludex B-FITC binding"}, "[4]": {"conditions": "Prestwick library screen, 10 µM drug, B-score of taurocholate uptake"}, "[5]": {"conditions": "combined ranking from functional and binding assay B-scores"}, "[6]": {"conditions": "screen, 10 µM drug, Myrcludex B-FITC binding"}, "[7]": {"conditions": "combined ranking from functional and binding screening assays"}, "[8]": {"conditions": "screen, 10 µM drug, taurocholate uptake"}, "[9]": {"conditions": "Prestwick library screen, Myrcludex B-FITC binding, 10 µM drug"}, "[10]": {"conditions": "Prestwick library screen, taurocholate uptake, 10 µM drug"}, "[11]": {"conditions": "ranking score beside the functional and binding assay B-scores of the screen"}}, "note": "Counter-ions that a name gives are not always drawn. Like-named read-outs stand apart in the source and are kept apart here. Non-standard residues stand in square brackets, D forms with d. Residues, ends and D or L forms follow the SMILES beside them. *: point of attachment. Sta = CC(C)C[C@H](N)[C@@H](O)CC(=O)O; Isovaleryl = CC(C)CC(=O)*"}
{"smiles": "Fc1ccc([C@@H]2CCNC[C@H]2COc2ccc3c(c2)OCO3)cc1", "note": "[Paroxetine Hydrochloride]", "values": [{"measurement": "B-score binding assay", "setting": "human NTCP [1]; [3]", "value": 1.07}, {"measurement": "B-score functional assay", "setting": "human NTCP [2]; [4]", "value": 0.185}, {"measurement": "Ranking score", "setting": "human NTCP [2]; [5]", "value": 918.273}]}
{"smiles": "CN1C(C)(C)CCCC1(C)C", "note": "[Pempidine tartrate]", "values": [{"measurement": "B-score binding assay", "setting": "human NTCP [1]; [3]", "value": 1.02}, {"measurement": "B-score functional assay", "setting": "human NTCP [2]; [4]", "value": 1.102}, {"measurement": "Ranking score", "setting": "human NTCP [2]; [5]", "value": 1065.26}]}
{"smiles": "CC(C)(C)NC[C@H](O)COc1ccccc1C1CCCC1", "note": "[Penbutolol sulfate]", "values": [{"measurement": "B-score binding assay", "setting": "human NTCP [1]; [6]", "value": -1.346}, {"measurement": "Ranking score", "setting": "human NTCP [2]; [7]", "value": 368.646}, {"measurement": "B-score functional assay", "setting": "human NTCP [2]; [8]", "value": 0.103}]}
{"smiles": "O=C(O)CN(CCN(CC(=O)O)CC(=O)O)CCN(CC(=O)O)CC(=O)O", "note": "[Pentetic acid]", "values": [{"measurement": "B-score binding assay", "setting": "human NTCP [1]; [6]", "value": -0.525}, {"measurement": "Ranking score", "setting": "human NTCP [2]; [7]", "value": 406.409}, {"measurement": "B-score functional assay", "setting": "human NTCP [2]; [8]", "value": -0.313}]}
{"smiles": "CCCC(C)C1(CC)C(=O)NC(=O)NC1=O", "note": "(stereo not drawn) [Pentobarbital]", "values": [{"measurement": "B-score binding assay", "setting": "human NTCP [1]", "value": 1.244}, {"measurement": "B-score functional assay", "setting": "human NTCP [2]", "value": -0.299}, {"measurement": "Ranking score", "setting": "human NTCP [2]", "value": 697.378}]}
{"smiles": "C[N+]1(CCCCC[N+]2(C)CCCC2)CCCC1.O=C([O-])C(O)C(O)C(=O)O.O=C([O-])C(O)C(O)C(=O)O", "note": "[Pentolinium bitartrate]", "values": [{"measurement": "B-score binding assay", "setting": "human NTCP [1]; [6]", "value": -0.512}, {"measurement": "Ranking score", "setting": "human NTCP [2]; [7]", "value": 451.889}, {"measurement": "B-score functional assay", "setting": "human NTCP [2]; [8]", "value": -0.089}]}
{"smiles": "C1CCc2nnnn2CC1", "note": "[Pentylenetetrazole]", "values": [{"measurement": "B-score binding assay", "setting": "human NTCP [1]; [9]", "value": -0.037}, {"measurement": "B-score functional assay", "setting": "human NTCP [2]; [10]", "value": 0.223}, {"measurement": "Ranking score", "setting": "human NTCP [2]; [11]", "value": 696.951}]}
{"smiles": "CC(C)CC(=O)N[C@H](C(=O)N[C@H](C(=O)N[C@@H](CC(C)C)[C@@H](O)CC(=O)N[C@@H](C)C(=O)N[C@@H](CC(C)C)[C@@H](O)CC(=O)O)C(C)C)C(C)C", "note": "[Pepstatin A] (Isovaleryl-VV[Sta]A[Sta]-OH)", "values": [{"measurement": "B-score binding assay", "setting": "human NTCP [1]; [9]", "value": -0.237}, {"measurement": "B-score functional assay", "setting": "human NTCP [2]; [10]", "value": 2.688}, {"measurement": "Ranking score", "setting": "human NTCP [2]; [11]", "value": 763.991}]}
{"smiles": "CCCN1C[C@H](CSC)C[C@@H]2c3cccc4[nH]cc(c34)C[C@H]21", "note": "[Pergolide mesylate]", "values": [{"measurement": "B-score binding assay", "setting": "human NTCP [1]; [9]", "value": 0.514}, {"measurement": "B-score functional assay", "setting": "human NTCP [2]; [10]", "value": -0.089}, {"measurement": "Ranking score", "setting": "human NTCP [2]; [11]", "value": 708.625}]}
{"smiles": "C1CCC(C(CC2CCCCN2)C2CCCCC2)CC1", "note": "(stereo not drawn) [Perhexiline maleate]", "values": [{"measurement": "B-score binding assay", "setting": "human NTCP [1]; [6]", "value": -0.916}, {"measurement": "Ranking score", "setting": "human NTCP [2]; [7]", "value": 400.32}, {"measurement": "B-score functional assay", "setting": "human NTCP [2]; [8]", "value": -0.011}]}
{"smiles": "CCC[C@H](N[C@@H](C)C(=O)N1[C@H](C(=O)O)C[C@@H]2CCCC[C@@H]21)C(=O)OCC", "note": "[Perindopril]", "values": [{"measurement": "B-score binding assay", "setting": "human NTCP [1]; [6]", "value": 1.021}, {"measurement": "Ranking score", "setting": "human NTCP [2]; [7]", "value": 319.862}, {"measurement": "B-score functional assay", "setting": "human NTCP [2]; [8]", "value": -2.428}]}
{"smiles": "O=C1[C@H]2CCCC[C@H]2C(=O)N1CCCCN1CCN(c2nsc3ccccc23)CC1", "note": "[Perospirone]", "values": [{"measurement": "B-score binding assay", "setting": "human NTCP [1]; [3]", "value": 1.438}, {"measurement": "B-score functional assay", "setting": "human NTCP [2]; [4]", "value": 0.093}, {"measurement": "Ranking score", "setting": "human NTCP [2]; [5]", "value": 917.333}]}
{"smiles": "CCOc1ccc(NC(C)=O)cc1", "note": "[Phenacetin]", "values": [{"measurement": "B-score binding assay", "setting": "human NTCP [1]; [3]", "value": 0.917}, {"measurement": "B-score functional assay", "setting": "human NTCP [2]; [4]", "value": 0.074}, {"measurement": "Ranking score", "setting": "human NTCP [2]; [5]", "value": 860.113}]}
{"smiles": "NNCCc1ccccc1", "note": "[Phenelzine sulfate]", "values": [{"measurement": "B-score binding assay", "setting": "human NTCP [1]; [6]", "value": -0.533}, {"measurement": "Ranking score", "setting": "human NTCP [2]; [7]", "value": 418.784}, {"measurement": "B-score functional assay", "setting": "human NTCP [2]; [8]", "value": -0.221}]}
{"smiles": "CC(Oc1ccccc1)C(=O)N[C@@H]1C(=O)N2[C@@H]1SC(C)(C)[C@@H]2C(=O)[O-].[K+]", "note": "(stereo partly drawn) [Phenethicillin potassium salt]", "values": [{"measurement": "B-score binding assay", "setting": "human NTCP [1]; [6]", "value": -0.048}, {"measurement": "Ranking score", "setting": "human NTCP [2]; [7]", "value": 437.958}, {"measurement": "B-score functional assay", "setting": "human NTCP [2]; [8]", "value": -0.676}]}
{"smiles": "CN(C)CCC(c1ccccc1)c1ccccn1", "note": "(stereo not drawn) [Pheniramine maleate]", "values": [{"measurement": "B-score binding assay", "setting": "human NTCP [1]; [6]", "value": -0.017}, {"measurement": "Ranking score", "setting": "human NTCP [2]; [7]", "value": 447.397}, {"measurement": "B-score functional assay", "setting": "human NTCP [2]; [8]", "value": -0.685}]}
{"smiles": "CN1C(=O)CC(c2ccccc2)C1=O", "note": "(stereo not drawn) [Phensuximide]", "values": [{"measurement": "B-score binding assay", "setting": "human NTCP [1]; [6]", "value": -1.044}, {"measurement": "Ranking score", "setting": "human NTCP [2]; [7]", "value": 401.836}, {"measurement": "B-score functional assay", "setting": "human NTCP [2]; [8]", "value": 0.043}]}
{"smiles": "CC(C)(N)Cc1ccccc1.Cl", "note": "[Phentermine hydrochloride]", "values": [{"measurement": "B-score binding assay", "setting": "human NTCP [1]; [3]", "value": 0.892}, {"measurement": "B-score functional assay", "setting": "human NTCP [2]; [4]", "value": 2.461}, {"measurement": "Ranking score", "setting": "human NTCP [2]; [5]", "value": 1114.52}]}
{"smiles": "Cc1ccc(N(CC2=NCCN2)c2cccc(O)c2)cc1", "note": "[Phentolamine hydrochloride]", "values": [{"measurement": "B-score binding assay", "setting": "human NTCP [1]; [9]", "value": 1.392}, {"measurement": "B-score functional assay", "setting": "human NTCP [2]; [10]", "value": -0.082}, {"measurement": "Ranking score", "setting": "human NTCP [2]; [11]", "value": 785.945}]}
{"smiles": "CCCCC1C(=O)N(c2ccccc2)N(c2ccccc2)C1=O", "note": "[Phenylbutazone]", "values": [{"measurement": "B-score binding assay", "setting": "human NTCP [1]; [6]", "value": -0.956}, {"measurement": "Ranking score", "setting": "human NTCP [2]; [7]", "value": 440.765}, {"measurement": "B-score functional assay", "setting": "human NTCP [2]; [8]", "value": 0.138}]}
{"smiles": "CC(N)C(O)c1ccccc1", "note": "(stereo not drawn) [Phenylpropanolamine hydrochloride]", "values": [{"measurement": "B-score binding assay", "setting": "human NTCP [1]", "value": -0.994}, {"measurement": "B-score functional assay", "setting": "human NTCP [2]", "value": 0.305}, {"measurement": "Ranking score", "setting": "human NTCP [2]", "value": 449.533}]}
{"smiles": "O=C(O)c1ccccc1C(=O)Nc1ccc(S(=O)(=O)Nc2nccs2)cc1", "note": "[Phthalylsulfathiazole]", "values": [{"measurement": "B-score binding assay", "setting": "human NTCP [1]; [3]", "value": 1.374}, {"measurement": "B-score functional assay", "setting": "human NTCP [2]; [4]", "value": 1.113}, {"measurement": "Ranking score", "setting": "human NTCP [2]; [5]", "value": 1099.94}]}
